Assay results published in ChEMBL document CHEMBL5523731, “Bitopic Ligands Support the Presence of a Metastable Binding Site at the β2 Adrenergic Receptor” (J Med Chem, 2024).

Legend:
[1] = target: T1, Beta-2 adrenergic receptor (Homo sapiens, UniProt P07550); test: Displacement of [3H]-DHA from beta-2 AR (unknown origin) overexpressed in HEK293 cell membrane assessed as dissociation constant (K) incubated for 90 mins by liquid scintillation analysis
[2] = target: T1, Beta-2 adrenergic receptor; test: Antagonist activity at beta-2 AR (unknown origin) overexpressed in HEK293 cell membrane assessed as inhibition of ISO-induced cAMP production at EC80 preincubated for 15 mins followed by agonist addition measured after 30 mins by TR-FRET assay
[3] = target: T1, Beta-2 adrenergic receptor; test: Displacement of [3H]-DHA from beta-2 AR (unknown origin) overexpressed in HEK293 cell membrane assessed as inhibition constant incubated for 90 mins by liquid scintillation analysis

T1 sequence (P07550 whole entry): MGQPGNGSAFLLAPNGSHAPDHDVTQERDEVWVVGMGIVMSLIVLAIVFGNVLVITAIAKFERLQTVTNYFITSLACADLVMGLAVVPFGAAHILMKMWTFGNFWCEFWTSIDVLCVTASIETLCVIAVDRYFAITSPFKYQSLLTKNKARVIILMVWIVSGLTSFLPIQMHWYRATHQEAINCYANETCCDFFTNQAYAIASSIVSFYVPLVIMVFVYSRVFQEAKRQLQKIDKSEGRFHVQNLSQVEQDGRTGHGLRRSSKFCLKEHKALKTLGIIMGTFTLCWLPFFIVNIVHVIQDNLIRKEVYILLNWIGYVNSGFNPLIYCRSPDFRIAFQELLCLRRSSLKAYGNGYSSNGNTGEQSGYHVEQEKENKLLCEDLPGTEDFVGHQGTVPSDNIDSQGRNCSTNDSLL

`CC(C)NC[C@H](O)COc1ccc(CCCCN=[N+]=[N-])cc1` showed a Kd [1] of 589 nM, an IC50 [2] of 4790 nM and a Ki [3] of 389 nM.
For `CC(C)NC[C@H](O)COc1ccc(CCCN=[N+]=[N-])cc1`, the IC50 [2] was 3980 nM.
